Test results published in patent publication US11332470B2, “CXCR4 inhibitors and uses thereof” (X4 Pharmaceuticals, Inc., priority 2016, dated 2022).
Like-named read-outs stand apart in the source and are kept apart here.

How the values were obtained:
[1] = Fraction of drug unbound to brain proteins; assay type: in vitro ADME, Mouse; conditions: read-out: Fu (b) % (fraction of drug unbound to brain proteins)
in vitro = conditions: human, Caco-2, pH 7.4
Summary of the method: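 Compound at 10 μM in HBSS pH 7.4 dosed A-to-B and B-to-A across Caco-2 monolayers, 90 min at 37 °C, duplicates. Monolayer integrity by TEER and lucifer yellow (5 μM, fluorescence 485/535 nm); compound quantified by LC-MS/MS.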

CN1CCN(c2cccc3[nH]c(CN4CCCC4c4ncccc4Cl)nc23)CC1 (stereo not drawn) [Compound I-26] showed a fraction unbound ([1]; Table 9, mouse) of 0.076, a Papp A→B at 90 min, 10 μM (in vitro) of 10 to 30 ×10⁻⁶ cm/s and a Papp B→A at 90 min, 10 μM (in vitro) of 10 to 30 ×10⁻⁶ cm/s. The efflux ratio at 90 min, 10 μM (in vitro) was 0.1 to 10.

In the case of Cc1cccnc1C1CCCN1Cc1cn2c(N3CCN(C)C4(CC4)C3)cccc2n1 (stereo not drawn) [Compound I-29], the fraction unbound ([1]; Table 10, mouse) is reported as 0.063, the Papp A→B at 90 min, 10 μM (in vitro) is reported as 10 to 30 ×10⁻⁶ cm/s and the Papp B→A at 90 min, 10 μM (in vitro) is reported as 10 to 30 ×10⁻⁶ cm/s. The efflux ratio at 90 min, 10 μM (in vitro) was 0.1 to 10.

Work on Cc1cccnc1C1CCCN1Cc1nc2cccc(N3CCN(C4CC4)CC3)c2[nH]1 (stereo not drawn) [Compound I-31] yielded a fraction unbound ([1]; Table 10, mouse) of 0.008, a Papp A→B at 90 min, 10 μM (in vitro) of 10 to 30 ×10⁻⁶ cm/s and a Papp B→A at 90 min, 10 μM (in vitro) of 10 to 30 ×10⁻⁶ cm/s. The efflux ratio at 90 min, 10 μM (in vitro) was 0.1 to 10.

For CN1CCN(c2c(CN3CCCC3c3ccccn3)nc3ccccn23)CC1 (stereo not drawn) [Compound I-41], the fraction unbound ([1]; Table 9, mouse) was 0.069, the Papp A→B at 90 min, 10 μM (in vitro) was 10 to 30 ×10⁻⁶ cm/s and the Papp B→A at 90 min, 10 μM (in vitro) was 10 to 30 ×10⁻⁶ cm/s. For the same compound, the efflux ratio at 90 min, 10 μM (in vitro) was 0.1 to 10.

Work on CN1CCN(c2c(CN3CCCC3c3ccccn3)nc3ccc(F)cn23)CC1 (stereo not drawn) [Compound I-63] yielded a fraction unbound ([1]; Table 9, mouse) of 0.053, a Papp A→B at 90 min, 10 μM (in vitro) of 10 to 30 ×10⁻⁶ cm/s and a Papp B→A at 90 min, 10 μM (in vitro) of 10 to 30 ×10⁻⁶ cm/s. The efflux ratio at 90 min, 10 μM (in vitro) was 0.1 to 10.

With CN1CCN(c2c(CN3CCCC3c3nccs3)nc3ccccn23)CC1 (stereo not drawn) [Compound I-70] the fraction unbound ([1]; Table 9, mouse) was 0.207, the Papp A→B at 90 min, 10 μM (in vitro) was 10 to 30 ×10⁻⁶ cm/s and the Papp B→A at 90 min, 10 μM (in vitro) was 10 to 30 ×10⁻⁶ cm/s. For the same compound, the efflux ratio at 90 min, 10 μM (in vitro) was 0.1 to 10.
